# Measured values reported in US20240246968A1, “SMALL MOLECULE INHIBITORS OF KRAS G12C MUTANT” (Merck Sharp & Dohme LLC, priority 2021, published 2024).
# Experiments:
# [1] = molecular target: Gppcp-bound recombinant K-Ras4B G12C mutant protein (amino acids 1-169, C51S/C80L/C118S) (Homo sapiens, UniProt P01116, C118S/C51S/C80L/G12C); test: KRASG12C binding assay (LC-MS, compound binding rate); settings: test compound final concentration 0.5 μM, 25° C., 1 hour
# Description: As test compounds for the KRASG12C binding assay, the compounds obtained in the “Preparation of Compounds” section were used. Sample solutions each containing a test compound were prepared in the form of a 10 mM DMSO solution.
# Gppcp-bound recombinant K-Ras4B G12C mutant protein (amino acids 1-169, C51S/C80L/C118S, SEQ ID NO:1) was diluted with a buffer (1×TBS, 0.1 mM TCEP, 0.25 mM MgCl2, 50 μM Gppcp) to prepare a 50 nM protein solution. K-Ras4B is the major splicing variant of K-Ras. Amino acid sequence of residues 1 to 150 including the compounds' binding region of K-Ras4B is exactly same as that of K-Ras4A, the other splicing variant (Oncotarget. 2016 Jul. 19; 7(29): 46717-46733). A sample solution containing 10 mM test compound was diluted ten-fold with DMSO to make a 1 mM sample solution, and then diluted twenty-fold with DMSO to make a 50 μM sample solution. 1 μL of a 50 μM sample solution was added to 100 μL of a 50 nM protein solution to adjust the final concentration of a test compound to be 0.5 μM in the mixture. The mixtures were stored in an incubator at 25° C. for 1 hour, and 10 μL of a 1×TBS solution containing 2% formic acid was added to stop the reaction, followed by LC-MS measurement. LC-MS measurement was performed using Xevo G2-S Q-Tof manufactured by Waters, and reverse-phase chromatography was performed with a desalting column. A mass spectrum of positive ions was obtained by electrospray. For a mass spectrum, a spectrum of polyvalent ions was collectively converted to a molecular weight by using OpenLynx software by the MaxEnt technique, and a compound binding rate was calculated from the ratio of the signal intensity of a peak that corresponds to the molecular weight of the protein to the signal intensity of a peak that corresponds to the molecular weight of the protein conjugated with the compound.
# The binding assay of the test compounds was conducted at a final concentration of 0.5 μM. A binding rate of 80% or more is rated “A”, a binding rate of 60% or more and less than 80% is rated “B”, a binding rate of 40% or more and less than 60% is rated “C”, a binding rate of 20% or more and less than 40% is rated “D”, and a binding rate of less than 20% is rated “E”. N.D.=not determined. Binding rate % is the ratio of KRAS signal intensity at the molecular weight of one molecule adduct to the sum of all the KRAS signal intensity (unbound form and adducts) in mass spectrum. Thus, binding rate 100% means that only the one molecule adduct was observed without any unbound KRAS. The following tables show the results.
# [2] = molecular target: T1, interaction between recombinant K-Ras4B G12C mutant protein and cRAF RAS-binding domain (cRAF-RBD) (Homo sapiens, UniProt P01116, G12C); test: Inhibitory activity on interaction between KRAS G12C and cRAF (Alpha technology); format: biochemical; settings: GMPPNP-bound KRAS G12C incubated with compound at 25° C. for 1 hour, then cRAF-RBD; Alpha signal
# T1 construct: made in house; host or cells: E. coli
# Description: Interaction between recombinant K-Ras4B G12C mutant protein (amino acids 1-169, SEQ ID NO:2) and cRAF RAS-binding domain (cRAF-RBD, amino acids 50-132, Jena Biosciences GmbH) was measured using Alpha technology (PerkinElmer Inc.).
# Recombinant KRAS G12C protein with an N-terminal His-tag was expressed in E. coli and purified by affinity chromatography. To prepare GTP-bound form and GDP-bound form of KRAS G12C protein. 50 μM KRAS G12C protein was incubated with 1 mM GMPPNP (Guanosine-5′-[(β,γ)-imido]triphosphate. Tetralithium salt)(Jena Bioscience GmbH) and 1 mM GDP, respectively, in a loading buffer (20 mM Tris-HCl (pH 7.5), 50 mM NaCl, 1 mM DTT and 2.5 mM EDTA) for 1 hour on ice. After the incubation, MgCl2 was added to a final concentration of 10 mM, followed by incubation at room temperature for 30 minutes. The mixture was allowed to pass through a NAP-5 column to remove free nucleotides and purified, and the resultant nucleotide-bound KRAS G12C protein was used for compound evaluation.
# For the measurement of the inhibitory activity of compounds on interaction between KRAS G12C and cRAF-RBD, GMPPNP-bound KRAS G12C protein was incubated with various concentrations of compound in a reaction buffer (20 mM Tris-HCl (pH 7.5), 100 mM NaCl, 1 mM MgCl2, 1 mM TCEP. 0.1% Tween 20) at 25° C. for 1 hour. After the incubation, recombinant cRAF-RBD and Alpha detection reagents were added and incubated at room temperature for 1.5 hours for binding. Interaction of KRAS G12C and cRAF-RBD was monitored by measuring Alpha signal. Inhibition % was calculated using the signal from the reaction without test compound (DMSO control) as 0% inhibition and the signal from the reaction using GDP-bound KRAS G12C in place of GMPPNP-bound KRAS G12C as 100% inhibition. IC50 values were calculated from dose titration curve using curve fitting by XLfit software (IDBS). The following tables show the results.
# MIA PaCa-2 cells = test: Growth inhibition activity on KRAS-G12C mutant cell line (MIA PaCa-2), CellTiter-Glo 3D; format: cell-based, human; settings: MIA PaCa-2, 3-day culture with compound
# Description: MIA PaCa-2 cells (given by Sumitomo Dainippon Pharma Co., Ltd.), which are a KRAS-G12C mutant human pancreas cancer cell line, were suspended in a 10% fetal bovine serum-containing RPMI1640 medium (manufactured by Fujifilm Wako Pure Chemical Corporation.). The cell suspension was seeded into each well of a 384-well U bottom microplate and cultured in an incubator containing 5% CO2 gas at 37° C. for 1 day. The compounds obtained in the “Preparation of Compounds” section were used as test compounds and were dissolved in DMSO, respectively, and each test compound was diluted with DMSO to give a concentration 500 times the final concentration. The resultant solution of the test compound in DMSO was diluted with the medium used for suspending cells and added to each well of the cell-culture plate to give a DMSO final concentration of 0.2%, followed by culture in an incubator containing 5% CO2 gas at 37° C. for another 3 days. The cell count after 3-day culture in the presence of the test compound was measured using CellTiter-Glo 3D Reagent (manufactured by Promega Corporation). All wells were added with CellTiter-Glo 3D Reagent and mixed for 10 minutes. 30 minutes after mixing, luminescence was measured by a plate reader. The growth inhibition rate was calculated from the following equation, and the concentration of the test compound at which 50/o inhibition was achieved (IC50 (nM)) was determined. The following tables show the results.
# [formula] • T: the emission intensity in a well into which a test compound was added. • C: the emission intensity in a well into which a test compound was not added.
IC50 [2] [µM],"IC50 (MIA PaCa-2 cells; Homo sapiens, MIA PaCa-2, 72 h) [µM]",IC50 (MIA PaCa-2 cells) [µM],SMILES,binding rate [1]
0.073,0.3,–,"Cc1cc2c(nc(CC(N)=O)n2C)c(Cl)c1-c1cccn2c(C(=O)c3cc(F)c(NC(=O)/C=C/CNC(C)(C)C)c(F)c3)ccc12 [Example 73, (E)-N-(4-(8-(2-(2-amino-2-oxoethyl)-4-chloro-1,6-dimethyl-1H-benzo[d]imidazol-5-yl)indolizine-3-carbonyl)-2,6-difluorophenyl)-4-(tert-butylamino)but-2-enamide]",A (A binding rate of 80% or more is rated “A”)
0.025,–,0.12,"Cc1cc2c(ncn2C)c(Cl)c1-c1cccn2c(C(=O)c3cc(F)c(NC(=O)/C=C/CNC4CCOCC4)c(F)c3)ccc12 (single isomer, unassigned) [Example 27-1, (E)-N-(4-(8-(4-chloro-1,6-dimethyl-1H-benzo[d]imidazol-5-yl)indolizine-3-carbonyl)-2,6-difluorophenyl)-4-((tetrahydro-2H-pyran-4-yl)amino)but-2-enamide]",A (A binding rate of 80% or more is rated “A”)
0.04,0.081,–,"COCc1nc2c(Cl)c(-c3cccn4c(C(=O)c5cc(F)c(NC(=O)/C=C/CNC(C)(C)C)c(F)c5)ccc34)c(C)cc2n1C [Example 86, (E)-4-(tert-butylamino)-N-(4-(8-(4-chloro-2-(methoxymethyl)-1,6-dimethyl-1H-benzo[d]imidazol-5-yl)indolizine-3-carbonyl)-2,6-difluorophenyl)but-2-enamide]",A (A binding rate of 80% or more is rated “A”)
0.0311,0.134,–,"CO[C@H]1CC[C@H](NC/C=C/C(=O)Nc2c(F)cc(C(=O)c3cc(C(=O)N(C)C)c4c(-c5c(C)cc6c(nc(C)n6C)c5Cl)cccn34)cc2F)CC1 [Example 106, 8-(4-chloro-1,2,6-trimethyl-1H-benzo[d]imidazol-5-yl)-3-(3,5-difluoro-4-((E)-4-(((1r,4r)-4-methoxycyclohexyl)amino)but-2-enamido)benzol)-N,N-dimethylindolizine-1-carboxamide]",A (A binding rate of 80% or more is rated “A”)
0.035,0.14,–,"CO[C@H]1CC[C@H](NC/C=C/C(=O)Nc2c(F)cc(C(=O)c3cc(C)c4c(-c5c(C)cc6c(nc(C)n6C)c5Cl)cccn34)cc2F)CC1 [Example 87, (E)-N-(4-(8-(4-chloro-1,2,6-trimethyl-1H-benzo[d]imidazol-5-yl)-1-methylindolizine-3-carbonyl)-2,6-difluorophenyl)-4-(((1r,4r)-4-methoxycyclohexyl)amino)but-2-enamide]",A (A binding rate of 80% or more is rated “A”)
0.076,0.19,–,"Cc1nc2cc(-c3cccn4c(C(=O)c5cc(F)c(NC(=O)/C=C/CNC6CCCCC6CO)c(F)c5)ccc34)c(C(F)(F)F)cc2n1C (stereo not drawn) [Example 65, (E)-N-(4-(8-(1,2-dimethyl-6-(trifluoromethyl)-1H-benzo[d]imidazol-5-yl)indolizine-3-carbonyl)-2,6-difluorophenyl)-4-((2-(hydroxymethyl)cyclohexyl)amino)but-2-enamide]",A (A binding rate of 80% or more is rated “A”)
0.035,0.069,–,CO[C@H]1CC[C@H](NC/C=C/C(=O)Nc2c(F)cc(C(=O)c3ccc4c(-c5c(C)cc6c(nc(CO)n6C)c5Cl)cccn34)cc2F)CC1 [Example 58],A (A binding rate of 80% or more is rated “A”)
0.032,0.0748,–,"COCc1cc(C(=O)c2cc(F)c(NC(=O)/C=C/CN[C@H]3CC[C@H](OC)CC3)c(F)c2)n2cccc(-c3c(C)cc4c(nc(C)n4C)c3Cl)c12 [Example 103, (E)-N-(4-(8-(4-chloro-1,2,6-trimethyl-1H-benzo[d]imidazol-5-yl)-1-(methoxymethyl)indolizine-3-carbonyl)-2,6-difluorophenyl)-4-(((1r,4r)-4-methoxycyclohexyl)amino)but-2-enamide]",A (A binding rate of 80% or more is rated “A”)
0.17,0.17,–,"CCc1nc2c(-c3cc4nc(C)n(C)c4cc3C(F)(F)F)cccn2c1C(=O)c1cc(F)c(NC(=O)/C=C/CN[C@H]2CC[C@H](OC)CC2)c(F)c1 [Example 99, (E)-N-(4-(8-(1,2-dimethyl-6-(trifluoromethyl)-1H-benzo[d]imidazol-5-yl)-2-ethylimidazo[1,2-a]pyridine-3-carbonyl)-2,6-difluorophenyl)-4-(((1r,4r)-4-methoxycyclohexyl)amino)but-2-enamide]",A (A binding rate of 80% or more is rated “A”)
2.44,–,1.46,"CCc1nc2c(-c3c(C(F)(F)F)cc4c(nc(C)n4C)c3OC)cccn2c1C(=O)c1cc(F)c(NC(=O)/C=C/CN[C@H]2CC[C@H](OC)CC2)c(F)c1 (single isomer, unassigned) [Example 102-2, (E)-N-(4-(2-ethyl-8-(4-methoxy-1,2-dimethyl-6-(trifluoromethyl)-1H-benzo[d]imidazol-5-yl)imidazo[1,2-a]pyridine-3-carbonyl)-2,6-difluorophenyl)-4-(((1r,4r)-4-methoxycyclohexyl)amino)but-2-enamide]",C (a binding rate of 40% or more and less than 60% is rated “C”)
